Measurements taken from patent US20110245335A1, “NEW INHIBITORS FOR TREATING DISEASES ASSOCIATED WITH AN EXCESS TRANSPORT OF HYALURONAN” (priority 2008, published 2011).

Legend:
hyaluronan export = test: Assay for hyaluronan transport/export inhibitors in fibroblast cell culture (hyaluronan in culture medium by ELISA); assay type: cell-based; conditions: 2 days at 37° C.
Experimental: Trypsinised fibroblasts were suspended in Dulbeccós medium at 10^5 cells/ml and 100 μl aliquots were transferred to a 96 well microtiter plate. The first row received 200 μl of the suspension and 20 μl of the inhibitors of the invention dissolved in phosphate buffered saline at concentrations of 4 mM. A serial dilution of the inhibitors was established by transfer of 100 μl aliquots from the first row to the following rows. All experiments were performed in duplicates. […] The cells were incubated for 2 days at 37° C. and aliquots (5 and 20 μl) of the culture medium were used for measurement of the hyaluronan concentration in the cell culture medium by an ELISA [125]. Briefly, the wells of a 96 well Covalink-NH-microtiter plate (NUNC) were coated with 100 μl of a mixture of […] of hyaluronan (Healon®), 9.2 μg/ml of N-Hydroxysuccinimide-3-sulfonic acid and 615 μl/ml of 1-ethyl-3-(3-dimethylaminopropyl)-carbodiimide for 2 hours at room temperature and overnight at 4° C. The wells were washed three times with 2 M NaCl, 41 mM MgSO4, 0.05% Tween-20 in 50 mM phosphate buffered saline pH 7.2 (buffer A) and once with 2 M NaCl, 41 mM MgSO4, in phosphate buffered saline pH 7.2. Additional binding sites were blocked by incubation with 300 μl of 0.5% bovine serum albumin in phosphate buffered saline for 30 min at 37° C. Calibration of the assay was performed with standard concentrations of hyaluronan ranging from 15 ng/ml to 6000 ng/ml in equal volumes of culture medium as used for measurement of the cellular supernatants. A solution (50 μl) of the biotinylated hyaluronan binding fragment of aggrecan (Calbiochem) in 1.5 M NaCl, 0.3 M guanidinium hydrochloride, 0.08% bovine serum albumin 0.02% NaN3 25 mM phosphate buffer pH 7.0 was preincubated with 50 μl of the standard hyaluronan solutions or cellular supernatants for 1 hour at 37° C. The mixtures were transferred to the hyaluronan-coated test plate and incubated for 1 hour at 37° C. The microtiter plate was washed three times with buffer A and incubated with 100 μl/well of a solution of streptavidin-horseraddish-peroxidase (Amersham) at a dilution of 1:100 in phosphate buffered saline, 0.1% Tween-20 for 30 min at room temperature. The plate was washed five times with buffer A and the colour was developed by incubation with a 100 μl/well of a solution of 5 mg o-phenylenediamine and 5 μl 30% H2O2 in 10 ml of 0.1 M citrate-phosphate buffer pH 5.3 for 25 min at room temperature. The adsorption was read at 490 nm. The concentrations in the samples were calculated from a logarithmic regression curve of the hyaluronan standard solutions.

[1] = pKa of the acidic moiety (stated in design rationale, no method); assay type: physicochemical; conditions: approximate values given in design rationale; no method described; read-out: pKa of the carboxylic moiety or its replacement
[2] = system: II-1α activated bovine cartilage explants; conditions: ref [14]; cited from earlier work

pKa [1] | Compound | IC50 (hyaluronan export; Fibroblast, 48 h) | also measured
~3 | CC(=O)Nc1ccccc1Oc1cccc(O)c1C(=O)O [Compound 86] | – | IC50 for hyaluronan export (hyaluronan export): no inhibitory activity
– | CC(=O)Nc1c(O)cc(O)cc1Oc1ccc(NC/C=C/c2ccccc2)cc1C(=O)O [Compound 96] | 10 µM | –
~8 | CC(=O)Nc1c(O)cccc1Oc1ccccc1C(=O)NO [Compound 97] | – | IC50 (hyaluronan export; listed as No. 97): 30 µM
– | CC(=O)Nc1c(O)cc(O)cc1Oc1cccc(N(C)C)c1C(=O)O [Compound 98] | 200 µM | –
~1 | CC(=O)Nc1c(O)cc(O)cc1Oc1ccc(Cl)cc1S(=O)(=O)O [Compound 99] | ~80 µM | –
– | CCCOc1ccccc1-c1nc2nn[nH]c2c(=O)[nH]1 [zaprinast] | – | infiltration of degrading enzymes [2]: reduced; proteoglycan content and collagen degradation [2]: normalized
